Measured values from patent US20090142330A1, “Use of inactive-plasmin to treat chronic inflammatory disease and tumors” (The Government of the United States of America as …, priority 2007, published 2009).

Legend:
[1] = tested on: MMP-1 production by monocytes; experiment: MMP-1 protein in monocyte conditioned media, Western blot; assay type: cell-based, human; details: for effect on LPS-induced MMP-1 production / effect on HMW-uPA enhancement of MMP-1 / effect on plasmin enhancement of MMP-1: monocytes preincubated 30 min with agent; for effect on LPS-induced MMP-1 production: then LPS; for effect on HMW-uPA enhancement of MMP-1: then LPS plus HMW-uPA; for effect on plasmin enhancement of MMP-1: then LPS plus plasmin
Description: Reagents. High molecular weight urokinase plasminogen activator (HMW-uPA), low molecular weight uPA (LMW-uPA), amino-terminal fragment-uPA (ATF-uPA) and α2-antiplasmin were obtained from American Diagnostica Inc. (Stamford, Conn.). […] LPS Escherichia coli 05:B55 was purchased from Sigma-Aldrich (St. Louis, Mo.). ERK1/2/phospho-ERK1/2 and p38/phospho-p38 antibodies were from Cell Signaling Technology (Beverly, Mass.). MMP-1 antibodies used were rabbit polyclonal antibodies against MMP-1 (provided by Dr. Henning Birkedal-Hansen, NIDCR/NIH) and a mouse anti-human MMP-1 monoclonal antibody (Chemicon International, Inc., Temecula, Calif.). Rabbit anti-COX-2 antibodies were obtained from Cayman Chemical Company (Ann Arbor, Mich.) and mouse anti-β-actin antibodies were from Chemicon International, Inc., Temecula, Calif.). Purification and culture of human monocytes. Human peripheral blood cells were obtained by leukapheresis of non-disease subjects. The monocyte fraction was purified by counter-flow centrifugal elutriation as previously described (Wahl et al., Cell Immunol. 85: 373-383, 1984; and Wahl et al., “In Current Protocols in Immunology,” eds. John Wiley & Sons, Inc. NY. Vol. 2: 7.6A.1-7.6A.10., 2005) and contained greater than 90% monocytes as determined by morphology and flow cytometry. Monocytes were cultured in serum-free Dulbecco Modified Eagle's Medium (DMEM; Cambrex, Walkersville, Md.) supplemented with 2 mM L-glutamine (Mediatech, Herndon, Va.) and 10 μg/ml gentamycin (Cambrex, Walkersville, Md.). Western blot analysis of MMP-1, MAPKs and COX-2. For MMP-1 determination, purified monocytes were cultured at a density of 5×10^6/ml of DMEM in 12 well polystyrene plates (Corning Incorporated Life Sciences, Lowell, Mass.). After 36 to 48 hours of treatment with reagents, the conditioned media were centrifuged and collected. Bovine serum albumin (BSA; 40 μg/ml) was added to the culture supernatants prior to the precipitation of the proteins with cold ethanol (final concentration, 60%) for at least 15 min at −70° C. The proteins were pelleted by microcentrifuging at 20,800×g for 12 min, washed with ethanol, and lyophilized by rotary evaporation. The lyophilized proteins were resuspended in sodium dodecyl sulfate (SDS)-Laemmli buffer [500 mM Tris-HCl (pH 6.8)/10% SDS/0.01% bromophenol-blue/20% glycerol], reduced with 5% β-mercaptoethanol, heated for 4 min at 100° C., and electrophoresed on a 10 or 12% Tris-glycine gel in SDS running buffer [25 mM Tris-HCl (pH 8.3)/192 mM glycine/[…]]. The proteins were transferred onto 0.45 μm nitrocellulose in a buffer containing 25 mM Tris-HCl (pH 8.3)/192 mM glycine/20% methanol and blocked with 50 mM Tris-HCl (pH 7.5)/150 mM NaCl (TBS) containing 5% nonfat dry milk for at least 1 hour. The blots were then incubated overnight with antibodies against MMP-1.
Western blots for MMP-1, MAPKs and COX-2 were incubated overnight with primary antibodies, washed and analyzed by the addition of Alexa Fluor 680 goat anti-rabbit or Alexa Fluor 750 goat anti-mouse antibodies (Molecular Probes® Inc., Eugene, Oreg.) and the infrared fluorescence detected with the Odyssey infrared imaging system (LI-COR, Lincoln, Nebr.). Densitometry analysis of the bands on the Western blots was determined with the LI-COR software analysis program or the ImageQuant software analysis program (Amersham Biosciences, Piscataway, N.J.).

[2] = target: T1, annexin A2 heterotetramer (annexin A2 p36 / S100A10 p11) on monocytes (Homo sapiens, UniProt P07355+P60903); experiment: Binding of FITC-labeled plasmin to monocytes, flow cytometry; details: preincubation of monocytes 30 min with agent before plasmin-FITC
T1 construct: Purified human monocytes were fixed and permeablized; endogenous in cells; host or cells: purified human peripheral blood monocytes, fixed and permeabilized
Procedure: (§1) Plasmin activity assay. Plasmin activity was determined with the SPECTROZYME PL kit (American Diagnostica Inc., Stamford, Conn.) which utilizes the chromogenic substrate H-D-norleucyl-hexahydrotyrosol-lysine-para-nitroanilide diacetate. For detection of cell-associated plasmin activity, monocytes were cultured at 1×10^6/well in Hanks Balanced Solution containing calcium and magnesium (Hyclone, Logan, Utah) with the plasmin substrate. Kinetic absorbance readings were measured at 405 nm. RT-PCR. Total cellular RNA was extracted with the RNeasy Mini Kit (QIAGEN® Inc., Valencia, Calif.) 8 hours after stimulation of monocytes with LPS. Transcript levels of MMP-1 were determined using semiquantitative reverse transcriptase-polymerase chain reaction (RT-PCR) with GADPH as an internal control. […] The amplified DNA was separated by 1.7% agarose gel electrophoresis, stained with SYTO 60 red fluorescent nucleic acid stain (Molecular Probes®, Eugene, Oreg.), and the intensity of the stained bands was analyzed with an infrared imaging system. […] FITC-conjugated BSA, plasmin (2.5 μg in 10 μl) or anti-human antibodies (1-2.5 μg/10 μl) then were added, respectively, incubated for 30 min and washed and analyzed by the FACSCalibur system (Becton Dickinson Biosciences, Franklin Lakes, N.J.). […] Flow cytometry results were analyzed by CELLQuest software (Becton Dickinson Biosciences, Franklin Lakes, N.J.). […]

plasmin = target: T2, plasmin (Homo sapiens, UniProt P00747); experiment: Cell free plasmin activity assay (SPECTROZYME PL); assay type: biochemical; details: compared with plasmin alone, FIG. 6B
T2 construct: purchased Sigma-Aldrich
Procedure: as §1

annexin A2 on monocytes = target: T3, annexin A2 on monocytes (Homo sapiens, UniProt P07355); experiment: Binding of goat anti-human annexin A2 antibodies to monocytes, flow cytometry; details: pre-treated with agent 30 minutes; FIG. 6D
T3 construct: Purified human monocytes were fixed and permeablized; endogenous in cells; host or cells: purified human peripheral blood monocytes, fixed and permeabilized
Procedure: as §1

T3 sequence (P07355 whole entry): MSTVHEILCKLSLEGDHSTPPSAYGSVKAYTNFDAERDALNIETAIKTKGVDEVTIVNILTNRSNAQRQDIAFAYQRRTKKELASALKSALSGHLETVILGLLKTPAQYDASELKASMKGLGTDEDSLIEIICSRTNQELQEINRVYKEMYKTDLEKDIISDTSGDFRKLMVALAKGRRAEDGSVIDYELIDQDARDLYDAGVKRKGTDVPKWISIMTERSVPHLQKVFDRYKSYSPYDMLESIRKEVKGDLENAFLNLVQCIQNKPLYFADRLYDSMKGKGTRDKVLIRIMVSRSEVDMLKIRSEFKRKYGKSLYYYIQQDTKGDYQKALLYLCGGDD
T1 sequence (P07355 2-339 limits assumed): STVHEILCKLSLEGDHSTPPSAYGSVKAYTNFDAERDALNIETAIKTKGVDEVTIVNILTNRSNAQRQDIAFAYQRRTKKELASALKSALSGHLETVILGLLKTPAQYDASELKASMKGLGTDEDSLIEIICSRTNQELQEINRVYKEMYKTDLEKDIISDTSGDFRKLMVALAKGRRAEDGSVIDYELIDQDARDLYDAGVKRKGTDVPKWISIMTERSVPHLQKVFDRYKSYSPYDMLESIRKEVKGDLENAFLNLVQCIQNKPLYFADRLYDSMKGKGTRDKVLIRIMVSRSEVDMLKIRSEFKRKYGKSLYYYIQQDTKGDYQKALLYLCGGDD
T1 sequence (P60903 2-97 limits assumed): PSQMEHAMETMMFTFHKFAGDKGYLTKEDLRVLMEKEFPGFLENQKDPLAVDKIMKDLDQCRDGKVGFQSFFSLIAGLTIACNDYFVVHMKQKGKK

binding of FITC-labeled plasmin to monocytes [2] | plasmin activity of inactive plasmin combined with plasmin (plasmin) | binding of antibodies against annexin A2 to monocytes (annexin A2 on monocytes) | Molecule | restoration of MMP-1 after indomethacin inhibition ([1]; PGE2 1 μM added to indomethacin-treated monocytes, FIG. 4C) | effect on LPS-induced MMP-1 production [1] | effect on HMW-uPA enhancement of MMP-1 [1] | effect on plasmin enhancement of MMP-1 [1]
 |  |  | CCCCC[C@H](O)/C=C/[C@H]1[C@H](O)CC(=O)[C@@H]1C/C=C\CCCC(=O)O [PGE2, prostaglandin-E2] | restored, in part |  |  | 
 |  |  | COc1ccc2c(c1)c(CC(=O)O)c(C)n2C(=O)c1ccc(Cl)cc1 [indomethacin] |  | inhibited | inhibited | inhibited
 |  |  | COc1cccc(-c2cc(=O)c3ccccc3o2)c1N [PD98059] |  |  | suppressed the enhancement | suppressed the enhancement
 |  |  | C[S+]([O-])c1ccc(-c2nc(-c3ccncc3)c(-c3ccc(F)cc3)[nH]2)cc1 (stereo not shown) [SB203580] |  |  | suppressed the enhancement | suppressed the enhancement
blocked the binding | same activity as plasmin alone | blocked the binding | inactive plasmin: plasmin in which the catalytic site had been irreversibly blocked with a peptide inhibitor; from Molecular Innovations, Inc. (protein) KVYLSECKTGNGKNYRGTMSKTKNGITCQKWSSTSPHRPRFSPATHPSEGLEENYCRNPDNDPQGPWCYTTDPEKRYDYCDILECEEECMHCSGENYDGKISKTMSGLECQAWDSQSPHAHGYIPSKFPNKNLKKNYCRNPDRELRPWCFTTDPNKRWELCDIPRCTTPPPSSGPTYQCLKGTGENYRGNVAVTVSGHTCQHWSAQTPHTHNRTPENFPCKNLDENYCRNPDGKRAPWCHTTNSQVRWEYCKIPSCDSSPVSTEQLAPTAPPELTPVVQDCYHGDGQSYRGTSSTTTTGKKCQSWSSMTPHRHQKTPENYPNAGLTMNYCRNPDADKGPWCFTTDPSVRWEYCNLKKCSGTEASVVAPPPVVLLPDVETPSEEDCMFGNGKGYRGKRATTVTGTPCQDWAAQEPHRHSIFTPETNPRAGLEKNYCRNPDGDVGGPWCYTTNPRKLYDYCDVPQCAAPSFDCGKPQVEPKKCPGRVVGGCVAHPHSWPWQVSLRTRFGMHFCGGTLISPEWVLTAAHCLEKSPRPSSYKVILGAHQEVNLEPHVQEIEVSRLFLEPTRKDIALLKLSSPAVITDKVIPACLPSPNYVVADRTECFITGWGETQGTFGAGLLKEAQLPVIENKVCNRYEFLNGRVQSTELCAGHLAGGTDSCQGDSGGPLVCFEKDKYILQGVTSWGLGCARPNKPGVYVRVSRFVTWIEGVMRNN |  | inhibited the production of MMP-1 |  | inhibited the production of MMP-1
